Assay results published in publication PMC3665348 (Biochemical pharmacology, 2012).

Target: T1, CYP1A1 (Homo sapiens, UniProt P04798)
T1 sequence (P04798 1-512): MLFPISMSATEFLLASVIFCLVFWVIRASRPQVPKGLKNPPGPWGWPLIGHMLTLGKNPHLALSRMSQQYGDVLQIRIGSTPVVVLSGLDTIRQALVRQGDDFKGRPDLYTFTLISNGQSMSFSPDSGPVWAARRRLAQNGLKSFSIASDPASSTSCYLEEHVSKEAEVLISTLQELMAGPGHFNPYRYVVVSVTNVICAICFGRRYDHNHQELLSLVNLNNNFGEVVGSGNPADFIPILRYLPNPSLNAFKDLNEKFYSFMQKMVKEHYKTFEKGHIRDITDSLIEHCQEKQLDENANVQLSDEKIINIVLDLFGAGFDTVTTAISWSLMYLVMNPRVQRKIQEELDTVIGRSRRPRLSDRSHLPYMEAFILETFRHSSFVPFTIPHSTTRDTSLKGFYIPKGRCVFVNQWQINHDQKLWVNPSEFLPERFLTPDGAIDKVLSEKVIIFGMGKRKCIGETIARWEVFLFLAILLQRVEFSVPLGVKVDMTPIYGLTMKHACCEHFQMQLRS
Assay: procainamide hydroxylamine
Format: biochemical
Settings: 20 μM procainamide, NADPH 2 mM, MgCl2 2 mM, 20 mM PBS pH 7.4, 37°C, 30 min

CCN(CC)CCNC(=O)c1ccc(N)cc1 [I, Procainamide]
procainamide hydroxylamine (VI) formation, UPLC-ESI-QTOFMS: CYP1A1 also had some activity.
